Laboratory results published in publication doi:10.1101/471615v1 (biorxiv, 2018).

Columns and labels:
Experiment in all cases: biochemical
[1] = biological target: T1, nemo-like kinase, NLK (Homo sapiens, UniProt Q9UBE8)
T1 sequence (Q9UBE8 1-527): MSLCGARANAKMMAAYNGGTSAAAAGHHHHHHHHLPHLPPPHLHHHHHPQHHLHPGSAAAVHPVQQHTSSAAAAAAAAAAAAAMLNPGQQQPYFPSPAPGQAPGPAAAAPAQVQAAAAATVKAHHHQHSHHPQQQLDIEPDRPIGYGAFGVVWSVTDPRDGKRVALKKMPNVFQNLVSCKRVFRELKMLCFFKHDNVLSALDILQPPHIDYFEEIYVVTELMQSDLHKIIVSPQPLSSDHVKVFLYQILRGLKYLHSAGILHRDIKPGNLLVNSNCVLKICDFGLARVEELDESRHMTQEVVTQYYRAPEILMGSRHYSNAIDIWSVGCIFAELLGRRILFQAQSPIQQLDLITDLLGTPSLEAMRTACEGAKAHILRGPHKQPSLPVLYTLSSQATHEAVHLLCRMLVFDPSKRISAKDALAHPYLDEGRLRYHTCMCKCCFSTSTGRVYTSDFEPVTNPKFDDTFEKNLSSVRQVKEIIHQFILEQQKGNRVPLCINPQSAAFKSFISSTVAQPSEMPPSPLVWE

[2] = biological target: AarF domain containing kinase 3, ADCK3 (Homo sapiens, UniProt Q8NI60)
Chain of AarF domain containing kinase 3, ADCK3 (Q8NI60 163-647): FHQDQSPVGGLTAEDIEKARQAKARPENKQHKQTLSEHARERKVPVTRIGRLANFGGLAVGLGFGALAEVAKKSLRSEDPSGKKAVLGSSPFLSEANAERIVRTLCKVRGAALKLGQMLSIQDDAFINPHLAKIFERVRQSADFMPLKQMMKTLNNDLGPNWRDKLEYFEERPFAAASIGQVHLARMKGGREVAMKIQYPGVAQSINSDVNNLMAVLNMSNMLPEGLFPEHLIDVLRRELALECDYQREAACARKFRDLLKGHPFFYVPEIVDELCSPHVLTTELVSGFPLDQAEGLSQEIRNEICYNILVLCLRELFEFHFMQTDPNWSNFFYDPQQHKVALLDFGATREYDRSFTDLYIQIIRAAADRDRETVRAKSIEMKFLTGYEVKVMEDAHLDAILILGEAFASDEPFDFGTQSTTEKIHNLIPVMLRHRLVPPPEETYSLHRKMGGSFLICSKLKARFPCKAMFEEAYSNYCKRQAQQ

[3] = biological target: T2, EphB6 (Homo sapiens, UniProt O15197)
T2 sequence (O15197 1-1021): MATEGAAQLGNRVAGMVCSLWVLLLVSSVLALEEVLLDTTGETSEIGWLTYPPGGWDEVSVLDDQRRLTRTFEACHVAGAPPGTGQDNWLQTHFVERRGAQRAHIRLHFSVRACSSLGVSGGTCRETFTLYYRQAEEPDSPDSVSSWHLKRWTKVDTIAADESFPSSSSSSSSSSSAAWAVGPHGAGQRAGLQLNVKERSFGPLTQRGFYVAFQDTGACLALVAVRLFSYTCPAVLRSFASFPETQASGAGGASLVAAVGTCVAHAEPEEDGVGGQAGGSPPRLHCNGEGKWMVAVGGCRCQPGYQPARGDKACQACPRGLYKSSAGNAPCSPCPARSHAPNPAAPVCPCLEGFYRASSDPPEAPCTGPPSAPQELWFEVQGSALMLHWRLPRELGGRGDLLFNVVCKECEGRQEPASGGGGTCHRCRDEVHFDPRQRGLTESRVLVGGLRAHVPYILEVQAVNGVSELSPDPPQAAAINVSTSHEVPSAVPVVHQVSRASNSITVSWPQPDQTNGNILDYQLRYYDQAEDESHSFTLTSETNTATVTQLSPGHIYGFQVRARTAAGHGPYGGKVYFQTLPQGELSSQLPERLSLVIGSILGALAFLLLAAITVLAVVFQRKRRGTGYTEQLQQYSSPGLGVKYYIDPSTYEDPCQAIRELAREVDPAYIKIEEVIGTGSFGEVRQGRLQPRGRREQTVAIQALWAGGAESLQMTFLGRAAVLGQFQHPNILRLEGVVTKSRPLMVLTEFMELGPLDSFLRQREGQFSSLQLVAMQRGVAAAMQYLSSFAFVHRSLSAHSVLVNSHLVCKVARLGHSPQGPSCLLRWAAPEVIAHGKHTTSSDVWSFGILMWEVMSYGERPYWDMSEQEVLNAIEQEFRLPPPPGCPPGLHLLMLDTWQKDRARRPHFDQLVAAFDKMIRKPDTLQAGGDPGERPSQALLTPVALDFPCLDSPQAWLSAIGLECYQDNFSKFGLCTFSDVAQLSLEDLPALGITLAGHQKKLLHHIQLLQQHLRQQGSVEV

[4] = biological target: T3, ACVR1 (Homo sapiens, UniProt Q04771)
T3 sequence (Q04771 1-509): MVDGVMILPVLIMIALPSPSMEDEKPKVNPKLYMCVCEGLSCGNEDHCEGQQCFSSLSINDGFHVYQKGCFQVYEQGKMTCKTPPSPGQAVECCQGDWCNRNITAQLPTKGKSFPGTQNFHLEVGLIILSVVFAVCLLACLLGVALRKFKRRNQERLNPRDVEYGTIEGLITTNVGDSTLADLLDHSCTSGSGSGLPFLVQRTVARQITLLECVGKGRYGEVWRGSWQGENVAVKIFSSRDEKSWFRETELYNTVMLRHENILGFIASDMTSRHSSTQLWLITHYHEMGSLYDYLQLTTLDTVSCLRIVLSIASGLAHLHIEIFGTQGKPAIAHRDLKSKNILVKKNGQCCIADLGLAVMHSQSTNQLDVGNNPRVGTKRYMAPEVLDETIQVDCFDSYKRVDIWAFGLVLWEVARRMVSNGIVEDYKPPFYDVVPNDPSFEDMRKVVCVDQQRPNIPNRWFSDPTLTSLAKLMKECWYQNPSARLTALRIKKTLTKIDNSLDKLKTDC

[5] = biological target: T4, MEK5 (Homo sapiens, UniProt Q13163)
T4 sequence (Q13163 1-448): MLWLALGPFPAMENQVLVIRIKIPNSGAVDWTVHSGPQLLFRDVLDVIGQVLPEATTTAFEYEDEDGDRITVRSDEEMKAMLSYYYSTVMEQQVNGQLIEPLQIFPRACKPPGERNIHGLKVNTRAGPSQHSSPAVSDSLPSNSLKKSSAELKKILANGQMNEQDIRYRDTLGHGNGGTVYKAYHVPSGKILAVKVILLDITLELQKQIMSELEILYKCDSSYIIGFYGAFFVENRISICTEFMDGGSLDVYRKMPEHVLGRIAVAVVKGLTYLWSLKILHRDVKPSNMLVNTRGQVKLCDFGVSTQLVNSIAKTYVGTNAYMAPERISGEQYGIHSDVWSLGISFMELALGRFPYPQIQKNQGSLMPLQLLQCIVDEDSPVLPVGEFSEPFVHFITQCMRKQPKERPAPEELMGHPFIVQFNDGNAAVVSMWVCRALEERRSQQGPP

[6] = biological target: LCK (Homo sapiens, UniProt P06239)
Chain of LCK (P06239 whole entry): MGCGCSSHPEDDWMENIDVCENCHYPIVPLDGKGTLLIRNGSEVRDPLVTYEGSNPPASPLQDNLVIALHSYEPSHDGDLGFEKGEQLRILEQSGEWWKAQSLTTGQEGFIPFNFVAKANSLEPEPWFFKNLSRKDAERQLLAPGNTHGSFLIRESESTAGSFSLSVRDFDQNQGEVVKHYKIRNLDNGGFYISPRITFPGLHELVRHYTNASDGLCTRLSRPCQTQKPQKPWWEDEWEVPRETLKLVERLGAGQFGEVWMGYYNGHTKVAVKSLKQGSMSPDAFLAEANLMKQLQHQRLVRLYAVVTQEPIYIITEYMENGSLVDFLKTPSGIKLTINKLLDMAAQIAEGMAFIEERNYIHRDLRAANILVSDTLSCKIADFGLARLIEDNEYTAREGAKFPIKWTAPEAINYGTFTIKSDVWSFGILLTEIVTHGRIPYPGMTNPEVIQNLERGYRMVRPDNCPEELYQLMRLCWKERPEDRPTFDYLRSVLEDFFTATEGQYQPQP

[7] = biological target: ABL1-Phos. (Homo sapiens, UniProt P00519)
Chain of ABL1-Phos. (P00519 whole entry): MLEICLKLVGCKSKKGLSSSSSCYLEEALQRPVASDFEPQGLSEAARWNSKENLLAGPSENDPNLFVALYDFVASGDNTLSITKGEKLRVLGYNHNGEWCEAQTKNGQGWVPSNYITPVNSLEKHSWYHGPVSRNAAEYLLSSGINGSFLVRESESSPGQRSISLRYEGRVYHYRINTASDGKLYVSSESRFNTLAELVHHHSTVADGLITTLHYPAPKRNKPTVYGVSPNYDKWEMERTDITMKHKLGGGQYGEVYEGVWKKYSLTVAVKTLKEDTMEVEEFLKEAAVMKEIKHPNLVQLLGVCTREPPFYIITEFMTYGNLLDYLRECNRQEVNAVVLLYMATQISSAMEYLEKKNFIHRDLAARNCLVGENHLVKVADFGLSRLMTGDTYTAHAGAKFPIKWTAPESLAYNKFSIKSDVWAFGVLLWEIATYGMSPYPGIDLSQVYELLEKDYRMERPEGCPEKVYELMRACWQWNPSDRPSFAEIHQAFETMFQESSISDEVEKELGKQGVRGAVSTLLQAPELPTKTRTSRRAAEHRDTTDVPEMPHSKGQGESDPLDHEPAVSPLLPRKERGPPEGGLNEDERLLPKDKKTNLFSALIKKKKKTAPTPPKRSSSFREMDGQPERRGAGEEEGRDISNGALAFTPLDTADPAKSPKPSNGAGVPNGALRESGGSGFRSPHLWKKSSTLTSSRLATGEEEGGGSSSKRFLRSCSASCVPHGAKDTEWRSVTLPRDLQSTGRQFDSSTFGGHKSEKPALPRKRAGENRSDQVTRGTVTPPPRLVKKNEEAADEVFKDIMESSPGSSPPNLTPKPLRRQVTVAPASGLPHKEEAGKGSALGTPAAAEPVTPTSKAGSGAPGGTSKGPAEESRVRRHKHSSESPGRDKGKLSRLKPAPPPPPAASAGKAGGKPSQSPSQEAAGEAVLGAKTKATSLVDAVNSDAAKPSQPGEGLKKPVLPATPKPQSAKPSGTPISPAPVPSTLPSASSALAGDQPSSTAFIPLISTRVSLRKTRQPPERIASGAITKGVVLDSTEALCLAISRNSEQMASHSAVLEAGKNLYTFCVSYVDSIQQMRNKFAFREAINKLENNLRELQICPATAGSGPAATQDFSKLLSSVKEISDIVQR

Kd [1]: > 10 µM | Kd [2]: > 10 µM | Kd [3]: > 10 µM | Kd [4]: > 10 µM | Kd [5]: > 10 µM | Kd [6]: > 10 µM | Kd [7]: > 10 µM
Compound: COc1cc(N(C)c2ccnc3ccc(C(F)(F)F)cc23)cc(OC)c1OC [compound 21, negative control (21)]
